From patent US5763433A, “Pharmaceutical compositions containing 3-beta-hydroxylated 6,7-substituted steroid derivatives, and use thereof” (Conservatoire National des Arts et Metiers, priority 1992, dated 1998)

Assays:
[1] = target: T1, nuclear binding of tritiated dexamethazone (glucocorticoid receptors) (Mus musculus, UniProt P06537); assay: Displacement of the nuclear binding of tritiated dexamethazone in isolated liver, brain, thymus and spleen cells; parameters: species or system C57BL/6 mouse; settings: for Displacement coefficient for nuclear binding of tritiated dexamethazone, Liver: liver cells, 100-fold excess of steroid over 2-80 nM 3H-dexamethazone, 60 min
T1 construct: The liver, brain, spleen and thymus are excised and the cells of each organ are recovered; from tissue; host or cells: isolated cells of liver, brain, spleen and thymus of metyrapone-treated C57BL/6 mice
T1 sequence (P06537 1-792): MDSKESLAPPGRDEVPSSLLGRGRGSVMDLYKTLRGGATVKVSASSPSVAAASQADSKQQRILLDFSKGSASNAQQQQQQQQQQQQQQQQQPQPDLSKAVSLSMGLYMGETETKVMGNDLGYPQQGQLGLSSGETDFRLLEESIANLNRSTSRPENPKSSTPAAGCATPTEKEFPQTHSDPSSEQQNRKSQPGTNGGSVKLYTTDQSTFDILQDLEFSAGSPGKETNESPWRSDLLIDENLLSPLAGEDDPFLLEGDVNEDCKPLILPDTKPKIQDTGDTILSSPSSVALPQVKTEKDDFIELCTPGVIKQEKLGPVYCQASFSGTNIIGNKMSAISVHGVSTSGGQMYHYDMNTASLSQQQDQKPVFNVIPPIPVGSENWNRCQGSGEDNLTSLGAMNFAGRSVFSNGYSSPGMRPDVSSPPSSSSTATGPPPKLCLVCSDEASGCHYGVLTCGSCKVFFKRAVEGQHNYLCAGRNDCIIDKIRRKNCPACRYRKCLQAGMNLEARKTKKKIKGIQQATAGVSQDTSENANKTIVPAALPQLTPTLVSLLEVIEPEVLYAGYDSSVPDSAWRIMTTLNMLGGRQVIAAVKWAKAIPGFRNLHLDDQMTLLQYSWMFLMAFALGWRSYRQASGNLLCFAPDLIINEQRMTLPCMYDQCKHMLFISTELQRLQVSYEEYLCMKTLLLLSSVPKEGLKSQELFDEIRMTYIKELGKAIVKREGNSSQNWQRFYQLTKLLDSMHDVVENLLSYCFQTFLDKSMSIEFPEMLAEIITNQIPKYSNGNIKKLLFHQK
Protocol: The isolated hepatocytes are incubated for 1 hour at room temperature with increasing concentrations (2-80 nM) of ^3 H-dexamethazone (DEX*). […] The hepatocyte nuclei are then isolated and purified and the radioactivity corresponding to the DEX* still bound is measured and expressed in cpm/10 ug of DNA. The area under the curve DEX* corresponds to zero displacement of the radioactivity. The area under the curve DEX*/DEX which corresponds to the displacement of radioactivity by the same molecule is taken arbitrarily as 100. The areas under the curve obtained with the other steroids makes it possible to calculate by interpolation between the areas zero and 100 their displacement coefficients for the nuclear binding of DEX*.
The mice are anesthetized with ether and bled, then perfused intracardially with physiological serum containing collagenase B (0.03 g/100 ml) for 10 minutes. […] The quantities of cells obtained are estimated on the base of the measurement of the DNA contained in the preparations.
The nuclei are recovered and their radioactive content measured as described by the authors cited above.
The area under the curve of tritiated dexamethazone alone is measured and taken as zero. […] The displacement coefficients found for each of the other steroids are calculated by interpolation on this scale, each result being the mean of a triplicate determination.

anti-lysozyme IgG = assay: Immunoenzymatic measurement of anti-lysozyme IgG in serum of mice immunized against lysozyme; type: in vivo, C57BL/6 mice; settings: for Optical densities +/- SD, anti-lysozyme IgG, 1/180 serial dilution: serum 1/180; for Optical densities +/- SD, anti-lysozyme IgG, 1/180 serial dilution / Optical densities +/- SD, anti-lysozyme IgG, 1/540 serial dilution / Optical densities +/- SD, anti-lysozyme IgG, first serial dilution: s.c., mean of 5 mice; for Optical densities +/- SD, anti-lysozyme IgG, 1/180 serial dilution / Optical densities +/- SD, anti-lysozyme IgG, 1/540 serial dilution: doses and timing as E1; for Optical densities +/- SD, anti-lysozyme IgG, 1/540 serial dilution: serum 1/540; for Optical densities +/- SD, anti-lysozyme IgG, first serial dilution: serum dilution not given, PREG 0,5 g/kg, DHEA 1,0 g/kg, ADIOL 125 mg/kg 1 hour before lysozyme, 7-hydroxy-PREG and 7-hydroxy-DHEA 6,25 mg/kg, 7β-hydroxy-DHEA 50,0 mg/kg, 7- and 7β-hydroxy-ADIOL 25,0 mg/kg with lysozyme
Protocol: The immunity effector effect was tested by subcutaneous injection concomitantly with that of an antigen and the 7-alpha- or 7-beta-hydroxylated derivative into C57BL/6 mice according to a standard immunization protocol (Methods in Enzymology (1980), vol. 70).
The effect of the compound as cellular immunity effector is measured by the quantity of circulating IgG directed against the antigen 21 days after the injection and after a booster injection 14 days layer.
Thirty five groups of five 6-weeks old C57BL/6 mice are given a subcutaneous injection of 200 ug of hen egg white lysozyme on days one and fourteen of the immunization protocol. Solutions of DHEA (Sigma D-4500) in dimethyl sulfoxide (DMSO) are injected in the same manner at variable times before the first injection of lysozyme. Amounts ranging from 0.25 and 2 g/kg are used. Ten other groups of 5 mice are given a subcutaneous injection of 6.25 to 50 mg/kg of 7-alpha-hydroxy-DHEA or 7-beta-hydroxy-DHEA dissolved in DMSO at the same time as the first lysozyme injection. Two groups receive only DMSO with lysozyme (controls). The blanks correspond to one group of 5 mice and are not given an injection.
Three weeks after the first injections the animals, then aged 9 weeks, are decapitated. The blood of each animal is collected and the presence of anti-lysozyme G immunoglobulins (IgG) is measured in serial dilutions of the sera by an immunoenzymatic titration using goat anti-mouse (Fc) IgG immunoglobulin labelled with peroxidase.
A group of 5 mice is given the subcutaneous injection of 125 mg/kg of 5-androstene-3-beta, 17-beta-diol (ADIOL) one hour prior to the first injection of lysozyme, and two groups of 5 mice are treated with 25 mg/kg of 7-alpha-hydroxy-ADIOL or 7-beta-hydroxy-ADIOL at the time of the first lysozyme injection.
DHEA or PREG or ADIOL is injected subcutaneously 1 hour before the first lysozyme injection. The 7-hydroxylated derivatives are administered simultaneously with the lysozyme injection. The immunoenzymatic measurement of the anti-lysozyme IgGs in the serial dilutions of the sera of each animal makes use of goat anti-mouse (Fc) IgG immunoglobulin, labelled with peroxidase in 96-well plates treated with lysozyme. The mean value of the optical densities measured in each group of 5 mice is calculated as well as the standard deviation (SD).

[2] = no competitor = zero, unlabelled dexamethazone = 100, mean of triplicate

C[C@]12CC[C@H](O)CC1=CC(=O)[C@@H]1[C@@H]2CC[C@]2(C)C(=O)CC[C@@H]12 [Steroid 7-oxo-DHEA, 3-beta-hydroxy-5-androsten-7,17-dione]
Displacement coefficient for nuclear binding of tritiated dexamethazone, Liver [1, 2]: 28

C[C@]12CC[C@H](O)C[C@@H]1C[C@@H](O)[C@@H]1[C@@H]2CC[C@]2(C)[C@@H](O)CC[C@@H]12 [Steroid 7α-OH-ADIOL, 5-alpha-androstane-3-beta, 7-alpha, 17-beta-triol]
Displacement coefficient for nuclear binding of tritiated dexamethazone, Brain ([1]; brain cells, 100-fold excess of steroid, no competitor = zero, unlabelled dexamethazone = 100, mean of triplicate): 96 | Displacement coefficient for nuclear binding of tritiated dexamethazone, Liver [1, 2]: 83 | Displacement coefficient for nuclear binding of tritiated dexamethazone, Spleen ([1]; spleen cells, 100-fold excess of steroid, no competitor = zero, unlabelled dexamethazone = 100, mean of triplicate): 125 | Displacement coefficient for nuclear binding of tritiated dexamethazone, Thymus ([1]; thymus cells, 100-fold excess of steroid, no competitor = zero, unlabelled dexamethazone = 100, mean of triplicate): 96

C[C@]12CC[C@H](O)C[C@@H]1CC(=O)[C@@H]1[C@@H]2CC[C@]2(C)C(=O)CC[C@@H]12 [Steroid 7-oxo-ISOA, 3-beta-hydroxy-5-alpha-androstane-7,17-dione]
Displacement coefficient for nuclear binding of tritiated dexamethazone, Liver [1, 2]: 84

CC(=O)[C@H]1CC[C@H]2[C@@H]3[C@@H](O)C=C4C[C@@H](O)CC[C@]4(C)[C@H]3CC[C@]12C [Steroid 7β-OH-PREG, 7-beta-hydroxy-pregnenolone]
Displacement coefficient for nuclear binding of tritiated dexamethazone, Liver [1, 2]: 82

C[C@]12CC[C@H]3[C@@H]([C@@H](O)C=C4C[C@@H](O)CC[C@@]43C)[C@@H]1CC[C@@H]2O [7β-hydroxy-ADIOL, androst-5-ene-3-beta,7-beta, 17-beta-triol]
Optical densities +/- SD, anti-lysozyme IgG, 1/180 serial dilution (anti-lysozyme IgG): 0,18 ± 0,02 | Optical densities +/- SD, anti-lysozyme IgG, 1/540 serial dilution (anti-lysozyme IgG): 0,12 ± 0,01 | Optical densities +/- SD, anti-lysozyme IgG, first serial dilution (anti-lysozyme IgG): 0,18 ± 0,06

C[C@]12CC[C@H](O)C[C@@H]1[C@@H](O)C[C@@H]1[C@@H]2CC[C@]2(C)C(=O)CC[C@@H]12 [Steroid 6α-OH-ISOA, 3-beta, 6-alpha-dihydroxy-5-alpha-androstane-17-one]
Displacement coefficient for nuclear binding of tritiated dexamethazone, Liver [1, 2]: 63

C[C@]12CC[C@H]3[C@@H]([C@H](O)C=C4C[C@@H](O)CC[C@@]43C)[C@@H]1CC[C@@H]2O [7-hydroxy-ADIOL, androst-5-ene-3-beta, 7-alpha, 17-beta-triol]
Optical densities +/- SD, anti-lysozyme IgG, 1/180 serial dilution (anti-lysozyme IgG): 0,14 ± 0,01 | Optical densities +/- SD, anti-lysozyme IgG, 1/540 serial dilution (anti-lysozyme IgG): 0,11 ± 0,01 | Optical densities +/- SD, anti-lysozyme IgG, first serial dilution (anti-lysozyme IgG): 0,15 ± 0,02 | Displacement of tritiated dexamethazone from nuclear binding / anti-glucocorticoid action (in words) ([1]; 100-fold excess of steroid): demonstrates its anti-glucocorticoid effect | Displacement coefficient for nuclear binding of tritiated dexamethazone, Liver [1, 2]: 88

CC(=O)[C@H]1CC[C@H]2[C@@H]3CC=C4C[C@@H](O)CC[C@]4(C)[C@H]3CC[C@]12C [PREG, 3-beta-hydroxy-5-pregnen-20-one, reference compound]
Optical densities +/- SD, anti-lysozyme IgG, first serial dilution (*) (anti-lysozyme IgG; * calculated from measurements on higher dilutions of the serum, dilution not given, PREG 0,5 g/kg 1 hour before, 7-hydroxy-PREG 6,25 mg/kg with lysozyme): 4,67 ± 1,21 | Optical densities +/- SD, anti-lysozyme IgG, 1/180 serial dilution (anti-lysozyme IgG): 1,83 ± 0,48 | Optical densities +/- SD, anti-lysozyme IgG, 1/540 serial dilution (anti-lysozyme IgG): 0,56 ± 0,15 | Effect on serum concentrations of anti-lysozyme IgG (in words) (anti-lysozyme IgG; steroid administered s.c. at least one hour prior to the injection of lysozyme): increase the serum concentrations of anti-lysozyme IgG

C[C@]12CC[C@H](O)C[C@@H]1C[C@H](O)[C@@H]1[C@@H]2CC[C@]2(C)C(=O)CC[C@@H]12 [Steroid 7β-OH-ISOA, 3-beta, 7-beta-dihydroxy-5-alpha-androstane-17-one]
Displacement coefficient for nuclear binding of tritiated dexamethazone, Liver [1, 2]: 68

CC(=O)[C@H]1CC[C@H]2[C@@H]3C(=O)C=C4C[C@@H](O)CC[C@]4(C)[C@H]3CC[C@]12C [Steroid 7-oxo-PREG, 3-beta-hydroxy-5-pregnen-7,20-dione]
Displacement coefficient for nuclear binding of tritiated dexamethazone, Liver [1, 2]: 35

C[C@]12CC[C@H](O)C[C@@H]1C[C@@H](O)[C@@H]1[C@@H]2CC[C@]2(C)C(=O)CC[C@@H]12 [Steroid 7α-OH-ISOA, 3-beta, 7-alpha-dihydroxy-5-alpha-androstane-17-one]
Displacement coefficient for nuclear binding of tritiated dexamethazone, Liver [1, 2]: 102
